Experiments:
[1] = target: T1, GAS2 (Arabidopsis thaliana, UniProt F4INZ9); assay: product of in vitro GAS2 reaction identified by LC-MS, compared with synthetic standard; assay type: biochemical
T1 construct: gene GIM2; recombinant purified GAS2
T1 sequence (F4INZ9 1-366): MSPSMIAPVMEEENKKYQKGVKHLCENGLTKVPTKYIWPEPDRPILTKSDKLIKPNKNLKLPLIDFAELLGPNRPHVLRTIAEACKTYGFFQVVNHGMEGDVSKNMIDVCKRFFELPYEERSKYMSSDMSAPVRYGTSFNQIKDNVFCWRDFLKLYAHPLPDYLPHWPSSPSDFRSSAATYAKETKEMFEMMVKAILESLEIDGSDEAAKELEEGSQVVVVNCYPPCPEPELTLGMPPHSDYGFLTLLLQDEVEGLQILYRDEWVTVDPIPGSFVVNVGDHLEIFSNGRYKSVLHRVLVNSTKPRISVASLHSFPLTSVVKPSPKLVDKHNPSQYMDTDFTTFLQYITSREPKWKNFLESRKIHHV

[2] = target: T2, GID1c (Arabidopsis thaliana, UniProt Q940G6); assay: microscale thermophoresis (MST), NT-647-labeled GST-GID1c; assay type: binding
T2 construct: glutathione S-transferase (GST)-tagged GID1c
T2 sequence (Q940G6 2-344): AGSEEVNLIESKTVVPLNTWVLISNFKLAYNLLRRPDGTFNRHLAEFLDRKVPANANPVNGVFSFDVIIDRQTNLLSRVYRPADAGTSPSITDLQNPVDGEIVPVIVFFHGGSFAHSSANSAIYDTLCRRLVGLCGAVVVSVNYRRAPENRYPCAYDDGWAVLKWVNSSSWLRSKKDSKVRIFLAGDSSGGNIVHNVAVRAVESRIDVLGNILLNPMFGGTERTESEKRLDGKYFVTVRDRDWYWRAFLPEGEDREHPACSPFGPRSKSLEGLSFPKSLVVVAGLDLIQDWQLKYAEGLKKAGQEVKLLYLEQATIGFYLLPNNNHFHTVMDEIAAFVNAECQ

Row | SMILES | product of in vitro GAS2 reaction identified by LC-MS, compared with synthetic s [1] | Kd [2] [nM]
1 | C[C@@]12CCC[C@@](C)(C(=O)O)[C@H]1[C@H](C(=O)O)[C@@]13C[C@@H](CC[C@@H]21)[C@](C)(O)C3 [DHGA12] | Our data demonstrate that GAS2 exhibits hydration activity using GA12 as a substrate to produce DHGA12. | 1450 ± 250
2 | C=C1C[C@]23C[C@H]1CC[C@H]2[C@@]12CC[C@H](O)[C@@](C)(C(=O)O1)[C@H]2[C@@H]3C(=O)O [GA4] |  | 680 ± 120
